Test results as given in US20090298857A1, “Treatment of Neurodegenerative Diseases Through Inhibition of HSP90” (SLOAN-KETTERING INSTITUTE FOR CANCER RESEARCH, priority 2006, published 2009).

Key:
Type in all cases: in vivo
[1] = tested on: p35 and tau phosphorylation in whole brains; experiment: Five day PU-DZ8 treatment of nine-month old JNPL3 mice
From the text: Transgenic mice: Transgenic mice, JNPL3 line (59) overexpressing mutant human tau (P301L, 4R0N) were used in this study. Mice were heterozygous and on a mixed hybrid genetic background composed of C57BL/DBA2/SW, as published in ref. 59. These mice develop NFTs in the basal telencephalon, diencephalon, brainstem, and spinal cord, with severe pathology accompanied by degeneration in the spinal cord leading to dystonia, paralysis, and death in mice >12 months in age. Nine month-old male JNPL3 mice (n=2) were treated intraperitoneally with PU-DZ8 or vehicle for 5 days. Mice were sacrificed 12 h after last treatment by cervical dislocation under anesthesia.
To further examine the effect of Hsp90 on tau phosphorylation, we used the JNPL3 line of mice expressing mutant (P301L) tau protein (59). Genetic analyses have linked mutations in the tau gene to FTDP-17 (60, 61). Over 20 distinct pathogenic mutations have been identified, with P301L as the most common mutation in tauophaties (33). […] The tau protein in JNPL3 is predominantly human and is phosphorylated at multiple sites: T181 (AT270). S202/T205 (AT8), T212 (AT100), T231 (AT180), S262, S396/S404, S409 and S422 (59, 62). […] The degree of p35 expression translated well into alleviation of phosphorylation. […] However, in mice where effects were more prominent and p35 expression declined to approximately 20% as compared to control, a significant effect on tau phosphorylation at S202/T205 and T212/S214 and a 50% reduction on T231 was observed. We could not detect a significant amount of tau phosphorylation at T181, site found to be hyperphosphorylated in PHF, tangles and neurofilaments (65). Again, whole brain expression of cdk5 was not affected (FIG. 3).

[2] = tested on: mTau expression and phosphorylation, subcortical brain region; experiment: 30 day Hsp90 inhibitor treatment of JNPL3 mice; conditions: 30 days
Method: To investigate whether modulation of mTau could be sustained over a longer Hsp90 inhibitor-treatment period, without being toxic to mice. JNPL3 mice were subjected for 30 days to these agents. Female JNPL3 mice 6.5 months of age (n=10) were administered i.p. vehicle (n=5) or one of the Hsp90 inhibitors, PU24FC1 (200 mg/kg) or PU-DZ8 (75 mg/kg) (n = 5), on a daily, five-times per week schedule and animals were sacrificed at 8 h following the last administered dose of inhibitor. […] Furthermore, no visible internal organ damage was detected at sacrifice upon gross inspection. Both S1 and P3 fractions extracted from the subcortical brain region of these mice were analyzed for mTau expression and phosphorylation.

[3] = tested on: human TauP301L in JNPL3 mouse brain; experiment: One dose PU-DZ8 in JNPL3 mice, soluble (S1) and insoluble (P3) Tau; conditions: 75 mg/kg i.p.
Method: To investigate whether the human TauP301L present in the JNPL3 line of mice is a sensitive target for Hsp90 inhibition, animals were treated with the brain-barrier permeable Hsp90 inhibitor PU-DZ8. This agent is a higher-potency water soluble derivative of PU24FC1 (EC50JNPL3 brain Hsp90=70 nM). One dose of PU-DZ8 (75 mg/kg) was administered intraperitoneally (i.p.) to female mice of 2.5-4 months in age (n=32) and animals were sacrificed in the interval of 0 to 36 h. Both aggregate-free Tau (S1) and insoluble Tau (P3) fractions were prepared from the subcortical and cortical regions of these mice. Human Tau levels were assessed by immunobloting with a human specific anti-Tau antibody (HT-7). […] We next examined in a 4- to 6-month old mouse group (n=15) whether the stability of mTau as present in tau aggregates (P3 fraction) was additionally regulated by Hsp90.
For experiments designed to test the kinetics of mTau and p35 modulation by Hsp90 inhibitors, animals were administered intraperitoneally (i.p.) 75 mg/kg PU-DZ8 in PBS (6% DMSO). Mice were sacrificed by CO2 euthanasia at the indicated times following PU-DZ8 administration. Hemibrains were separated into cortico-limbic (cortex, amygdale and hippocampus) and subcortical (basal ganglia, diencephalon, brain stem and cerebellum) regions, quickly frozen on dry ice and stored at −80° C. and processed. In summary, each brain piece was weighed and homogenized in three volumes of Tris-buffered saline (TBS) containing protease and phosphatase inhibitors (25 mM Tris-HCl, pH 7.4, 150 mM NaCl, 1 mM EDTA, 1 mM EGTA, 5 mM sodium pyrophosphate, 30 mM p-glycerophosphate, 30 mM sodium fluoride. 1 mM phenylmethylsulfonyl fluoride (PMSF)). The homogenates were centrifuged at 27,000 g for 15 min at 4° C. Supernatants were collected as S1 fractions, and the pellets (P1) were re-homogenized in three volumes of salt/sucrose buffer (0.8 M NaCl, 10% sucrose, 10 mM Tris/HCl, pH 7.4, 1 mM EGTA, 1 mM PMSF) and centrifuged as above. The resulting pellets were discarded and the supernatants were incubated with sarkosyl (Sigma, St Louis, Mo., USA; 1% final concentration) for 1 h at 37° C. The sarkosyl mixtures were then centrifuged at 150,000 g for 30 min at 4° C. The supernatants (S2 fraction) were collected, and the pellets (P3) were resuspended in 50 μL 2% SDS in TBS and stored at −80° C. for western blotting. Proteins were analyzed by Western blot.

CC(C)NCCCn1c(Cc2cc3c(cc2I)OCO3)nc2c(N)nc(F)nc21 [PU-DZ8]
levels of compound in brain ([1]; 5 days i.p.): Pharmacologically relevant levels | whole brain expression of cdk5 ([1]; 5 days i.p.): not affected | reduction in p35 levels ([1]; 5 days i.p., whole brain): 50% | effect on tau phosphorylation at S202/T205 (Ab AT-8) ([1]; at 50% reduction in p35 levels): approximately similar effect | reduction of phosphorylation on T212/S214 (Ab AT-100) ([1]; at 50% reduction in p35 levels): almost completely | effect on tau phosphorylated at T231 (Ab AT-180) ([1]; at a reduction by 50% in p35 expression): No significant effect | p35 expression as compared to control ([1]; mice where effects were more prominent): approximately 20% | reduction of tau phosphorylation on T231 ([1]; mice with p35 expression approximately 20% of control): 50% | p35 in S1 fraction [2]: p35 reduction | toxicity (animal weight, fur appearance, appetite, posture) ([2]; daily five-times per week i.p., PU24FC1 200 mg/kg, PU-DZ8 75 mg/kg): No toxicity was observed | Tau expression and phosphorylation in S1 and P3 fractions ([2]; hTau P<0.0001, T231 P=0.0034 (FIG. 15)): significant reduction | cdk5 expression [3]: No significant changes | expressions of Akt and Raf-1 [3]: not altered | insoluble and hyperphosphorylated Tau (P3 fraction) ([3]; 4- to 6-month old mice): significant reduction | soluble precursor pool mTau (S1), subcortical brain regions ([3]; 4 h (P=0.0031), maintained up to 36 h): significant decrease
